According to US20230107216A1, “PANTETHEINE DERIVATIVES AND USES THEREOF” (Comet Therapeutics, Inc., priority 2018, published 2023):
Read-outs that look alike come from different tables or passages of the source.

What was measured:
[1] = system: Propionic Acidemia (PA) primary fibroblasts GM00371; test: Mitochondrial respiration, XFe96 Extracellular Flux Analyzer (OCR/ECAR), PA fibroblasts GM00371; type: cell-based; conditions: Homo sapiens, Fibroblast
[2] = system: monocyte-derived M1 macrophages; test: M1 differentiation assay (macrophage TNFα, IL6, IL10 ELISA, FACS); type: cell-based, human; conditions: for inhibition at 10 µM / activation at 10 µM / activation at 50 µM / inhibition at 50 µM: Homo sapiens, Macrophage; for activation at 10 µM / activation at 50 µM: read-out: % Increase in IL-10 Secretion
How it was run: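 CD14+ human blood monocytes (100,000) differentiated 6 days with 10 ng/ml GM-CSF plus compound at 10 or 50 μM, refreshed days 2 and 4. Matured 24 h with GM-CSF, IFNγ, LPS plus compound. Supernatant TNFα, IL6, IL10 by ELISA; FACS M1 phenotype CD86+CD68+CD163−.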

[3] = system: HepG2 cells; test: Glucose uptake (Glucose Uptake-Glo); type: cell-based; conditions: Homo sapiens, read-out: % increase in Glucose Uptake
[4] = 10 uM, read-out: % decrease in Macrophage TNFα Secretion
[5] = assay condition D (1 mM glucose, 10% FBS), read-out: Increase in Maximal Respiratory Capacity AUC
[6] = assay condition D (1 mM glucose, 10% FBS), read-out: Increase in Spare Capacity AUC
[7] = 10 uM, read-out: % decrease in Macrophage IL-6 Secretion
[8] = 50 uM, read-out: % decrease in Macrophage IL-6 Secretion
[9] = assay condition A (10 mM glucose, 2 mM L-glutamine, 1 mM pyruvate, 10% FBS), read-out: Increase in Maximal Respiratory Capacity AUC
[10] = assay condition C (10 mM glucose, 10% FBS), read-out: Increase in Maximal Respiratory Capacity AUC

## COC(=O)CC[C@H](N)C(=O)SCCNC(=O)CCNC(=O)[C@H](O)C(C)(C)CO [Compound 411]
[1]; assay condition A (10 mM glucose, 2 mM L-glutamine, 1 mM pyruvate, 10% FBS), read-out: Increase in Spare Capacity AUC
  activation at 10 µM: ≥ 30%
[2]; 50 uM
  % decrease in Live Macrophage Cells: ≥20%
[2]; [4]
  inhibition at 10 µM: ≥ 30%

## CC(=O)SCCNC(=O)CCNC(=O)[C@H](O)C(C)(C)COC(=O)[C@@H](N)Cc1ccc(O)c(O)c1 [Compound 498, (3R)-3-[(2-[[2-(acetylsulfanyl)ethyl]carbamoyl]ethyl)carbamoyl]-3-hydroxy-2,2-dimethylpropyl (2S)-2-amino-3-(3,4-dihydroxyphenyl)propanoate]
[1]; [5]
  activation at 10 µM: ≥ 10%
[3]
  activation at 50 µM: ≥ 10%

## C[C@H](O)CC(=O)CC(=O)SCCNC(=O)CCNC(=O)[C@H](O)C(C)(C)CO [Compound 1306, (2R)-2,4-dihydroxy-N-[2-[(2-[[(5S)-5-hydroxy-3-oxohexanoyl]sulfanyl]ethyl)carbamoyl]ethyl]-3,3-dimethylbutanamide]
[3]
  activation at 10 µM: ≥ 30%

## COC(=O)CCC(=O)SCCNC(=O)CCNC(=O)[C@H](OC(=O)CN)C(C)(C)CO [Compound 1294, methyl 4-[(2-[3-[(2R)-2-[(2-aminoacetyl)oxy]-4-hydroxy-3,3-dimethylbutanamido]propanamido]ethyl)sulfanyl]-4-oxobutanoate]
[1]; [6]
  activation at 10 µM: ≥ 30%
[3]
  activation at 10 µM: ≥ 30%

## CC(C)C(=O)CC(=O)SCCNC(=O)CCNC(=O)[C@H](O)C(C)(C)CO [Compound 1239, (R)—S-(2-(3-(2,4-dihydroxy-3,3-dimethylbutanamido)propanamido)ethyl) 4-methyl-3-oxopentanethioate]
[2]; 10 uM
  % Increase in Live Macrophage Cells: ≥20%
  activation at 10 µM: ≥ 30%
[2]; [7]
  inhibition at 10 µM: ≥ 30%
[2]; [4]
  inhibition at 10 µM: ≥ 30%

## CC(C(=O)SCCNC(=O)CCNC(=O)[C@H](O)C(C)(C)CO)[C@@H](C)O (stereo partly drawn) [Compound 1244, (2R)-2,4-dihydroxy-N-{2-[(2-{[(3R)-3-hydroxy-2-methylbutanoyl]sulfanyl}ethyl)carbamoyl]ethyl}-3,3-dimethylbutanamide]
[2]; [7]
  inhibition at 10 µM: ≥ 30%
[2]; [4]
  inhibition at 10 µM: ≥ 30%

## CC(C)(COC(=O)CCC(=O)O)[C@@H](O)C(=O)NCCC(=O)NCCS [Compound 1310, (R)-4-(3-hydroxy-4-((3-((2-mercaptoethyl)amino)-3-oxopropyl)amino)-2,2-dimethyl-4-oxobutoxy)-4-oxobutanoic acid]
[2]; [7]
  inhibition at 10 µM: ≥ 30%
[2]; [4]
  inhibition at 10 µM: ≥ 30%
[2]; 50 uM
  activation at 50 µM: ≥ 30%

## COC(=O)/C=C/C(=O)SCCNC(=O)CCNC(=O)[C@H](O)C(C)(C)COP(=O)(O)O [Compound 73, methyl (R,E)-4-((2-(3-(2-hydroxy-3,3-dimethyl-4-(phosphonooxy)butanamido)propanamido)ethyl)thio)-4-oxobut-2-enoate]
[2]; [4]
  inhibition at 10 µM: ≥ 30%
[2]; [8]
  inhibition at 50 µM: ≥ 30%

## CC(C)(CO)[C@@H](O)C(=O)NCCC(=O)NCCSC(=O)CCCN [Compound 370, (2R)—N-[2-([2-[(4-aminobutanoyl)sulfanyl]ethyl]carbamoyl)ethyl]-2,4-dihydroxy-3,3-dimethylbutanamide]
[1]; [9]
  activation at 10 µM: ≥ 10%
[1]; [10]
  activation at 50 µM: ≥ 10%
[1]; [5]
  activation at 10 µM: ≥ 10%
[3]
  activation at 50 µM: ≥ 30%

## CC(=O)SCCNC(=O)CCNC(=O)[C@H](O)C(C)(C)COC(=O)[C@H](C)N [Compound 502, (3R)-3-[(2-[[2-(acetylsulfanyl)ethyl]carbamoyl]ethyl)carbamoyl]-3-hydroxy-2,2-dimethylpropyl (2S)-2-aminopropanoate]
[1]; [9]
  activation at 10 µM: ≥ 30%
  activation at 50 µM: ≥ 10%

## CC(C)(CO)[C@@H](OC(=O)CCC(=O)O)C(=O)NCCC(=O)NCCS [Compound 1311, (R)-4-((4-hydroxy-1-((3-((2-mercaptoethyl)amino)-3-oxopropyl)amino)-3,3-dimethyl-1-oxobutan-2-yl)oxy)-4-oxobutanoic acid]
[2]; 50 uM
  % decrease in IL-10 Secretion: ≥30%
  activation at 50 µM: ≥ 30%
[2]; [7]
  inhibition at 10 µM: ≥ 30%
[2]; [4]
  inhibition at 10 µM: ≥ 30%

## C[C@H](CC(=O)SCCNC(=O)CCNC(=O)[C@H](O)C(C)(C)CO)OC(=O)CCC(=O)O [Compound 1243, 4-{[(2R)-4-[(2-{3-[(2R)-2,4-dihydroxy-3,3-dimethylbutanamido]propanamido}ethyl)sulfanyl]-4-oxobutan-2-yl]oxy}-4-oxobutanoic acid]
[2]; [4]
  inhibition at 10 µM: ≥ 30%

## CC1(CC(=O)SCCNC(=O)CCNC(=O)[C@H](O)C(C)(C)CO)OCCO1 [Compound 1252, (R)—S-(2-(3-(2,4-dihydroxy-3,3-dimethylbutanamido)propanamido)ethyl)-2-(2-methyl-1,3-dioxolan-2-yl)ethanethioate]
[2]; 50 uM
  % decrease in Live Macrophage Cells: ≥20%
  activation at 50 µM: ≥ 30%
[2]; [7]
  inhibition at 10 µM: ≥ 30%
[2]; [4]
  inhibition at 10 µM: ≥ 30%

## CC(C)(CO)[C@@H](O)C(=O)NCCC(=O)NCCSC(=O)CC(O)C(=O)O (stereo partly drawn) [Compound 39]
[2]; 10 uM
  % Increase in Live Macrophage Cells: ≥20%
  activation at 10 µM: ≥ 30%
[2]; [7]
  inhibition at 10 µM: ≥ 30%
[2]; [4]
  inhibition at 10 µM: ≥ 30%

## CC(C)(CO)[C@@H](O)C(=O)NCCC(=O)NCCSC(=O)CCC(=O)O [Compound 1, (R)-4-((2-(3-(2,4-dihydroxy-3,3-dimethylbutanamido)propanamido)ethyl)thio)-4-oxobutanoic acid]
[1]; [10]
  activation at 50 µM: ≥ 10%
[1]; [6]
  activation at 10 µM: ≥ 10%
[3]
  activation at 10 µM: ≥ 30%

## COC(=O)C(C)C(=O)SCCNC(=O)CCNC(=O)[C@H](O)C(C)(C)CO (stereo partly drawn) [Compound 405]
[2]; 50 uM
  % decrease in IL-10 Secretion: ≥30%
  % decrease in Live Macrophage Cells: ≥20%
[2]; 10 uM
  activation at 10 µM: ≥ 30%
[2]; [7]
  inhibition at 10 µM: ≥ 30%
[2]; [4]
  inhibition at 10 µM: ≥ 30%

## CCC(C)C(=O)CC(=O)SCCNC(=O)CCNC(=O)[C@H](O)C(C)(C)CO (stereo partly drawn) [Compound 1240, S-(2-(3-((R)-2,4-dihydroxy-3,3-dimethylbutanamido)propanamido)ethyl) 4-methyl-3-oxohexanethioate]
[2]; 10 uM
  % Increase in Live Macrophage Cells: ≥20%
[2]; [7]
  inhibition at 10 µM: ≥ 30%
[2]; [4]
  inhibition at 10 µM: ≥ 30%
[2]; 50 uM
  activation at 50 µM: ≥ 30%

## CC(C)=CC(=O)SCCNC(=O)CCNC(=O)[C@H](O)C(C)(C)CO [Compound 37, S-2-{3-[(R)-2,4-dihydroxy-3,3-dimethylbutyrylamino]propionylamino}ethyl 3-methyl-2-butenethioate]
[2]; 10 uM
  % decrease in IL-10 Secretion: ≥30%
[2]; [4]
  inhibition at 10 µM: ≥ 30%
[2]; [8]
  inhibition at 50 µM: ≥ 30%

## CC(C)(CO)[C@@H](O)C(=O)NCCC(=O)NCCSC(CC(=O)OCC[N+](C)(C)C)C(=O)O (stereo partly drawn) [Compound 51, [2-([3-carboxy-3-[(2-[3-[(2R)-2,4-dihydroxy-3,3-dimethylbutanamido]propanamido]ethyl)sulfanyl]propanoyl]oxy)ethyl]trimethylazanium]
[1]; [10]
  activation at 50 µM: ≥ 10%
[3]
  activation at 10 µM: ≥ 30%

## CC(C)(CO)[C@@H](O)C(=O)NCCC(=O)NCCSC(=O)[C@@H](N)Cc1ccc(O)c(O)c1 [Compound 371, (2R)—N-[2-[(2-[[(2S)-2-amino-3-(3,4-dihydroxyphenyl)propanoyl]sulfanyl]ethyl)carbamoyl]ethyl]-2,4-dihydroxy-3,3-dimethylbutanamide]
[3]
  activation at 10 µM: ≥ 30%

## COC(=O)CCC(=O)SCCNC(=O)CCNC(=O)[C@H](O)C(C)(C)CO [Compound 4, Methyl (R)-4-((2-(3-(2,4-dihydroxy-3,3-dimethylbutanamido)propanamido)ethyl)thio)-4-oxobutanoate]
[2]; [4]
  inhibition at 10 µM: ≥ 30%

## CCCCCCC(=O)SCCNC(=O)CCNC(=O)[C@H](O)C(C)(C)CO [Compound 372, (2R)—N-(2-[[2-(heptanoylsulfanyl)ethyl]carbamoyl]ethyl)-2,4-dihydroxy-3,3-dimethylbutanamide]
[1]; [10]
  activation at 50 µM: ≥ 10%

## CC(C)(CO)[C@@H](O)C(=O)NCCC(=O)NCCSC(=O)C1CCC(=O)N1 (stereo partly drawn) [Compound 1227, S-2-{3-[(R)-2,4-dihydroxy-3,3-dimethylbutyrylamino]propionylamino}ethyl 5-oxo-2-pyrrolidinecarbothioate]
[2]; 10 uM
  activation at 10 µM: ≥ 30%
[2]; [4]
  inhibition at 10 µM: ≥ 30%

## C/C=C/C(=O)SCCNC(=O)CCNC(=O)[C@H](O)C(C)(C)COP(=O)(O)O [Compound 82, (R)—S-(2-(3-(2-hydroxy-3,3-dimethyl-4-(phosphonooxy)butanamido)propanamido)ethyl) (E)-but-2-enethioate]
[2]; [4]
  inhibition at 10 µM: ≥ 30%
[2]; [8]
  inhibition at 50 µM: ≥ 30%

## CC(C)(CO)[C@@H](O)C(=O)NCCC(=O)NCCSC(=O)CCCO [Compound 1304, (2R)-2,4-dihydroxy-N-[2-([2-[(4-hydroxybutanoyl)sulfanyl]ethyl]carbamoyl)ethyl]-3,3-dimethylbutanamide]
[3]
  activation at 10 µM: ≥ 20%
